From ChEMBL document CHEMBL5053549, “Discovery of Potent and Novel Dual PARP/BRD4 Inhibitors for Efficient Treatment of Pancreatic Cancer” (J Med Chem, 2021)
Active and inactive are the calls of the source. The calls are words filed in the database; no cut-off is given here.

Tests used:
Mus musculus [1] = experiment: Inhibition of homologous recombinant repair in human SW1990 cells xenografted in BALB/c mouse assessed as increase in HEX1M1 expression at 45 mg/kg, ip after 4 days by immunohistochemical analysis; assay type: functional, organism-based; settings: time 4.0 day
[2] = biological target: Poly [ADP-ribose] polymerase 1 (Homo sapiens, UniProt P09874); experiment: Inhibition of PARP1 (unknown origin) incubated for 45 mins in presence of biotinylated-NAD+ by microplate reader analysis
Poly [ADP-ribose] polymerase 1, sequence (P09874 whole entry): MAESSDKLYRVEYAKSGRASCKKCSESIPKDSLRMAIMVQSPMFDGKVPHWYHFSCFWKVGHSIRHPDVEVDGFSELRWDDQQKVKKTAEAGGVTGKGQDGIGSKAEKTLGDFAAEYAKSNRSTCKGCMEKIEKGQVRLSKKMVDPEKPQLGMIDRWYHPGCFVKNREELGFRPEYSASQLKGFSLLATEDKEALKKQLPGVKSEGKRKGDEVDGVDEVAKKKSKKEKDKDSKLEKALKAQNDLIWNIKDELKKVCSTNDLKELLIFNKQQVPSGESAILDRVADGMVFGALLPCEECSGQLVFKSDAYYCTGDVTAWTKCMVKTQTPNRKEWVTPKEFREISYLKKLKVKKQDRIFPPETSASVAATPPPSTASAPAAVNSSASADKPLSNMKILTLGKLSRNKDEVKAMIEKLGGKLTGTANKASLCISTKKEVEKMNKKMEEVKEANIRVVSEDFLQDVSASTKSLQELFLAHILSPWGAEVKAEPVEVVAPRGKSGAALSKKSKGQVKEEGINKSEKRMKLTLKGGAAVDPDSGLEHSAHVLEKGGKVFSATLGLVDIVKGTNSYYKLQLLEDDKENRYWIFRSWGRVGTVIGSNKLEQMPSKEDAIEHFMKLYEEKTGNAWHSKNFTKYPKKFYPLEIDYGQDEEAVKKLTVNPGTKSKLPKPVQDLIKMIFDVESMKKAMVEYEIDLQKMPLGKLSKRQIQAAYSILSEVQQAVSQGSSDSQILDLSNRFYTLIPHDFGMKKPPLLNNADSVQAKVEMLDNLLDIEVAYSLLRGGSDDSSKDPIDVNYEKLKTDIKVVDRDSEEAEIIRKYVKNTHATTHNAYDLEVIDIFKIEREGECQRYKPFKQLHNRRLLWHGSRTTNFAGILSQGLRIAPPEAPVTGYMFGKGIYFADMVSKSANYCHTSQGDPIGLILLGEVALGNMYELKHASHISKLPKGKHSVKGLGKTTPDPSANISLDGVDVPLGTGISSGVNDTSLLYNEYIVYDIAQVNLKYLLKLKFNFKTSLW

[3] = biological target: Poly [ADP-ribose] polymerase 2 (Homo sapiens, UniProt Q9UGN5); experiment: Inhibition of recombinant PARP2 (unknown origin) incubated for 45 mins in presence of biotinylated-NAD+ by ELISA
Poly [ADP-ribose] polymerase 2, sequence (Q9UGN5 whole entry): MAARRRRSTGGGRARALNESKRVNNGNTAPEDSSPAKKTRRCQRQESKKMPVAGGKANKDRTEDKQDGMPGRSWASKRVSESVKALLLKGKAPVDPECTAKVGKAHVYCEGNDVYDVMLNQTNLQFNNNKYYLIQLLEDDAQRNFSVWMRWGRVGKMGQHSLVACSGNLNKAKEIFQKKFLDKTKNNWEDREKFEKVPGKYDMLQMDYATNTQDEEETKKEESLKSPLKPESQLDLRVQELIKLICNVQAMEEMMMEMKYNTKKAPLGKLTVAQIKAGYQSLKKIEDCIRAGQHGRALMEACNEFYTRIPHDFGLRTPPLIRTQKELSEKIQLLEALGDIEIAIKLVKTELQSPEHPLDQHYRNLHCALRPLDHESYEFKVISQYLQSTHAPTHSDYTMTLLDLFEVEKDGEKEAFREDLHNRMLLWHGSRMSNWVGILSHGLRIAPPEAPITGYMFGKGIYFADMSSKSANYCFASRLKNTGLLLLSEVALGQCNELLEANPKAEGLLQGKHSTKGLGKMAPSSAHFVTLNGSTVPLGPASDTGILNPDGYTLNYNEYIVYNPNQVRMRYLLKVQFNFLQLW

[4] = biological target: Bromodomain testis-specific protein (Homo sapiens, UniProt Q58F21); experiment: Inhibition of recombinant BRDT BD1 (unknown origin) incubated for 120 mins by TR-FRET assay
[5] = biological target: Bromodomain-containing protein 4 (Homo sapiens, UniProt O60885); experiment: Inhibition of BRD4 expression in human SW1990 cells at 1 uM after 4 days by Western blot analysis; assay type: cell-based; settings: time 4.0 day
Mus musculus [6] = experiment: Toxicity in BALB/c mouse xenografted with human SW1990 cells assessed as effect on body weight at 45 mg/kg, ip administered for 28 consecutive days; assay type: organism-based; settings: in vivo, 672 h, time 28 day
Mus musculus [7] = experiment: Toxicity in BALB/c mouse xenografted with human SW1990 cells assessed as spleen damage at 45 mg/kg, ip administered for 28 consecutive days by H and E staining based […] microscopic analysis; assay type: organism-based; settings: in vivo, 672 h, time 28 day
Mus musculus [8] = experiment: Toxicity in BALB/c mouse xenografted with human SW1990 cells assessed as liver damage at 45 mg/kg, ip administered for 28 consecutive days by H and E staining based […] microscopic analysis; assay type: organism-based; settings: in vivo, 672 h, time 28 day
Mus musculus [9] = experiment: Toxicity in BALB/c mouse xenografted with human SW1990 cells assessed as heart damage at 45 mg/kg, ip administered for 28 consecutive days by H and E staining based […] microscopic analysis; assay type: organism-based; settings: in vivo, 672 h, time 28 day
SW1990 [10] = experiment: Induction of apoptosis in human SW1990 cells assessed as early apoptotic cells at 1 uM after 4 days by Annexin V-FITC and propidium iodide staining based flow cytometry (reference value: […]%); assay type: functional; settings: time 4 day
SW1990 [11] = experiment: Effect on cell cycle progression in human SW1990 cells assessed as reduction in CCND1 expression at 1 to 2 uM after 4 days by Q-PCR analysis; assay type: functional, cell-based; settings: dose 1-2 µM, time 4.0 day
SW1990 [12] = experiment: Induction of DNA damage in human SW1990 cells assessed as tail DNA at 1 to 4 uM incubated for 4 days in presence of 3 uM Olaparib by comet assay; assay type: functional, cell-based; settings: dose 1-4 µM, time 4.0 day
SW1990 [13] = experiment: Inhibition of homologous recombinant repair in human SW1990 cells assessed as reduction in Rad51 expression at 1 to 2 uM after 4 days by Q-PCR analysis; assay type: functional, cell-based; settings: dose 1-2 µM, time 4.0 day
SW1990 [14] = experiment: Inhibition of homologous recombinant repair in human SW1990 cells assessed as increase in […] expression at 1 to 2 uM after 4 days by Western blot analysis; assay type: functional, cell-based; settings: dose 1-2 µM, time 4.0 day
SW1990 [15] = experiment: Induction of autophagy in human SW1990 cells assessed as increase in pAMPKalpha expression at 1 to 2 uM incubated for 4 days by immunofluorescence assay; assay type: functional, cell-based; settings: dose 1-2 µM, time 4.0 day
SW1990 [16] = experiment: Induction of autophagy in human SW1990 cells assessed as increase in pULK1 expression at 1 to 2 uM incubated for 4 days by immunofluorescence assay; assay type: functional, cell-based; settings: dose 1-2 µM, time 4.0 day
SW1990 [17] = experiment: Induction of autophagy in human SW1990 cells xenografted in BALB/c mouse assessed as decrease in p62 expression at 45 mg/kg, ip after 4 days by Q-PCR analysis; assay type: functional, organism-based; settings: time 4.0 day
Mus musculus [18] = experiment: Toxicity in BALB/c mouse xenografted with human SW1990 cells assessed as effect on body weight at 15 mg/kg, ip administered for 28 consecutive days in presence of 45 mg/kg Olaparib; assay type: organism-based; settings: in vivo, 672 h, time 28 day
Mus musculus [19] = experiment: Toxicity in BALB/c mouse xenografted with human SW1990 cells assessed as lung damage at 15 mg/kg, ip administered for 28 consecutive days by H and E staining based […] microscopic analysis; assay type: organism-based; settings: in vivo, 672 h, time 28 day
Mus musculus [20] = experiment: In vivo inhibition of BRD4 expression in human SW1900 cells xenografted in BALB/c mouse assessed as reversal of Olaparib-induced BRD4 accumulation at 15 mg/kg, ip administered for 28 consecutive days in presence of 45 mg/kg Olaparib by immunohistochemical analysis; assay type: functional, organism-based; settings: time 28.0 day
Mus musculus [21] = experiment: In vivo inhibition of BRD4 expression in human SW1900 cells xenografted in BALB/c mouse assessed as reversal of Olaparib-induced BRD4 accumulation at 15 mg/kg, ip administered for 28 consecutive days in presence of 45 mg/kg Olaparib by Western blot analysis; assay type: functional, organism-based; settings: time 28.0 day
SW1990 [22] = experiment: Induction of apoptosis in human SW1990 cells assessed as late apoptotic cells at 1 uM after 4 days in presence of 3 uM Olaparib by Annexin V-FITC and propidium iodide staining based flow cytometry (reference value: 6.22%); assay type: functional; settings: time 4 day
SW1990 [23] = experiment: Induction of cell cycle arrest in human SW1990 cells assessed as accumulation of cells at G2/M phase at 4 uM incubated for 4 days by propidium iodide staining based flow cytometry (reference value: 5.89%); assay type: functional; settings: time 4 day
SW1990 [24] = experiment: Induction of cell cycle arrest in human SW1990 cells assessed as accumulation of cells at G0/G1 phase at 1 uM incubated for 4 days in presence of 3 uM Olaparib by propidium iodide staining based flow cytometry (reference value: 64.79%); assay type: functional; settings: time 4 day
SW1990 [25] = experiment: Effect on cell cycle progression in human SW1990 cells assessed as reduction in Olaparib-induced CDK6 expression at 1 uM after 4 days in presence of Olaparib by Q-PCR analysis; assay type: functional, cell-based; settings: time 4.0 day
SW1990 [26] = experiment: Effect on cell cycle progression in human SW1990 cells assessed as reduction in Olaparib-induced PLK1 expression at 1 uM after 4 days in presence of Olaparib by Q-PCR analysis; assay type: functional, cell-based; settings: time 4.0 day
SW1990 [27] = experiment: Inhibition of homologous recombinant repair in human SW1990 cells assessed as reduction in Olaparib-induced Rad51 expression at 1 uM after 4 days in presence of Olaparib by Q-PCR analysis; assay type: functional, cell-based; settings: time 4.0 day
SW1990 [28] = experiment: Inhibition of homologous recombinant repair in human SW1990 cells assessed as reduction in Olaparib-induced Rad51 expression at 1 uM after 4 days in presence of Olaparib by Western blot analysis; assay type: functional, cell-based; settings: time 4.0 day
SW1990 [29] = experiment: Inhibition of homologous recombinant repair in human SW1990 cells assessed as reduction in BRCA1 expression at 4 uM after 4 days by Q-PCR analysis; assay type: functional, cell-based; settings: time 4.0 day
SW1990 [30] = experiment: Inhibition of homologous recombinant repair in human SW1990 cells assessed as reduction in Rad51 expression at 4 uM after 4 days by Q-PCR analysis; assay type: functional, cell-based; settings: time 4.0 day
SW1990 [31] = experiment: Inhibition of homologous recombinant repair in human SW1990 cells assessed as increase in […] expression at 4 uM after 4 days by Western blot analysis; assay type: functional, cell-based; settings: time 4.0 day
SW1990 [32] = experiment: Inhibition of homologous recombinant repair in human SW1990 cells assessed as reduction in c-Myc expression at 4 uM after 4 days by Q-PCR analysis; assay type: functional, cell-based; settings: time 4.0 day

CC[C@@H]1C(=O)N(C)c2cnc(N(C)c3ccc(-c4nc5c(C(N)=O)cccc5[nH]4)cc3OC)nc2N1C1CCCC1
inhibition (Mus musculus [1]): Active | IC50 [2]: 13 nM | IC50 [3]: 4.7 nM | IC50 [4]: 1200 nM | inhibition [5]: Active | Activity (Mus musculus [6]): Non-Toxic | Activity (Mus musculus [7]): Non-Toxic | Activity (Mus musculus [8]): Non-Toxic | Activity (Mus musculus [9]): Non-Toxic | Activity (SW1990 [10]): 1.71% | Activity (SW1990 [11]): Active | Activity (SW1990 [12]): Active | inhibition (SW1990 [13]): Active | inhibition (SW1990 [14]): Active | Activity (SW1990 [15]): Active | Activity (SW1990 [16]): Active | Activity (SW1990 [17]): Active

Cc1sc2c(c1C)C(c1ccc(Cl)cc1)=N[C@@H](CC(=O)OC(C)(C)C)c1nnc(C)n1-2
Activity (Mus musculus [18]): Non-Toxic | Activity (Mus musculus [19]): Non-Toxic | Activity (Mus musculus [20]): Active | Activity (Mus musculus [21]): Active | Activity (SW1990 [22]): 36.2% | Activity (SW1990 [23]): 5.51% | Activity (SW1990 [24]): 71.53% | Activity (SW1990 [25]): Active | Activity (SW1990 [26]): Active | inhibition (SW1990 [27]): Active | inhibition (SW1990 [28]): Active | inhibition (SW1990 [29]): Active | inhibition (SW1990 [30]): Active | inhibition (SW1990 [31]): Active | inhibition (SW1990 [32]): Active
